# Like-named read-outs stand apart in the source and are kept apart here.
# Molecular target: Human Factor D (Homo sapiens (Human), UniProt P00746)
# Experiment: Human Factor D Assay
# Assay type: biochemical
# Experimental: Human Factor D (purified from human serum, Complement Technology, Inc.) at 80 nM final concentration was incubated with test compound at various concentrations for 5 minutes at room temperature in 50 mM Tris, 1M NaCl, pH 7.5. A synthetic substrate Z-L-Lys-SBzl and DTNB (Ellman's reagent) are added to final concentrations of 100 μM each. […] IC50 values are calculated by nonlinear regression of complement Factor D reaction rates as a function of test compound concentration.
# [1] = Human Factor D 80 nM, substrate Z-L-Lys-SBzl, Table 3, read-out: IC5 (Stars)
# [2] = Human Factor D 80 nM, substrate Z-L-Lys-SBzl, star classes, read-out: IC50
# Human Factor D, sequence (P00746 26-253): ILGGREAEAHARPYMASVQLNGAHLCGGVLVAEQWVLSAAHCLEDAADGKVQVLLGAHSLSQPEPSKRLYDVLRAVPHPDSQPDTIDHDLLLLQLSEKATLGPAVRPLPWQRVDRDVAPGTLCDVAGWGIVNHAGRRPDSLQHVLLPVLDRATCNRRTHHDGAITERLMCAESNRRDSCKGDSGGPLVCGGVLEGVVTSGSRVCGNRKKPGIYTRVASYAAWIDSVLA
structure (smiles),measurement,setting,value
"CC(=O)c1cn(CC(=O)N2C[C@H](F)C[C@H]2C(=O)NCc2ccncc2)c2ccc(-c3ccnnc3)cc12 [Compound 40, (2S,4R)-1-(2-(3-acetyl-5-(pyridazin-4-yl)-1H-indol-1-yl)acetyl)-4-fluoro-N-(pyridin-4-ylmethyl)pyrrolidine-2-carboxamide]",IC50,,1000 to 10000 nM
"NC(=O)c1nn(CC(=O)N2CCC[C@]2(F)C(=O)Nc2cccnc2)c2ccc(-c3ccnnc3)cc12 [Compound 47, 1-(2-((2S,4R)-2-fluoro-2-(pyridin-3-ylcarbamoyl)pyrroli-din-1-yl)-2-oxoethyl)-5-(pyridazin-4-yl)-1H-indazole-3-carboxamide]",IC50,"Human Factor D 80 nM, substrate Z-L-Lys-SBzl, read-out: IC50",> 10000 nM
"CC(=O)c1nn(CC(=O)N2C[C@H](F)C[C@H]2C(=O)NC2CCN(C(=O)c3cn[nH]c3)CC2)c2ccc(-c3cnc(C)nc3)cc12 [Compound 261, (2S,4R)-N-(1-(1H-pyrazole-4-carbonyl)piperidin-4-yl)-1-(2-(3-acetyl-5-(2-methylpyrimidin-5-yl)-1H-indazol-1-yl)acetyl)-4-fluoropyrrolidine-2-carboxamide]",IC50,read-out: IC50,< 1000 nM
CC(=O)c1nn(CC(=O)N2C[C@H](F)C[C@H]2C(=O)Nc2cccc(Br)n2)c2ccc(-c3nc4c(s3)CCCC4)cc12 [Compound 297],IC50,"Human Factor D, assay of Example 8, read-out: IC50",< 1000 nM
"Cc1ncc(-c2ccc3c(c2)c([C@H](C)O)nn3CC(=O)N2[C@@H]3C[C@@H]3C[C@H]2C(=O)Nc2cccc(Br)n2)cn1 [Compound 409, (1R,3S,5R)—N-(6-Bromopyridin-2-yl)-2-(2-(3-((S)-1-hydroxyethyl)-5-(2-methylpyrimidin-5-yl)-1H-indazol-1-yl)acetyl)-2-azabicyclo[3.1.0]hexane-3-carboxamide]",IC50,[1],< 1000 nM
"Cc1cccc(C[C@H](O)[C@@H]2C[C@@H](F)CN2C(=O)Cn2cc(C(N)=O)c3cc(-c4cnc(C)nc4)ccc32)n1 [Compound 455, 1-(2-((2S,4R)-4-fluoro-2-((S)-1-hydroxy-2-(6-methylpyridin-2-yl)ethyl)pyrrolidin-1-yl)-2-oxoethyl)-5-(2-methylpyrimidin-5-yl)-1H-indole-3-carboxamide]",IC50,[1],> 10000 nM
"Cc1cccc(NC(=O)[C@@H]2[C@H]3CC[C@H](C3)N2C(=O)Cn2cc(C(N)=O)c3cc(-c4ccc(F)nc4)ccc32)n1 [Compound 500, 5-(6-Fluoropyridin-3-yl)-1-(2-((1R,3S,4S)-3-(6-methylpyridin-2-ylcarbamoyl)-2-azabicyclo[2.2.1]heptan-2-yl)-2-oxoethyl)-1H-indole-3-carboxamide]",IC50,[1],> 10000 nM
"CC(=O)c1nn(CC(=O)N2C[C@@H](C)C[C@H]2C(=O)Nc2nc(Br)ccc2C)c2ccc(-c3cnc(C)nc3)cc12 [Compound 643, (2S,4S)-1-(2-(3-Acetyl-5-(2-methylpyrimidin-5-yl)-1H-indazol-1-yl)acetyl)-N-(6-bromo-3-methylpyridin-2-yl)-4-methylpyrrolidine-2-carboxamide]",IC50,[2],< 1000 nM
"CC(=O)c1nn(CC(=O)N2C[C@H](F)C[C@@H]2C(=O)Nc2nc(Br)ccc2C(=O)O)c2ccc(-c3cnc(C)nc3)cc12 [Compound 648, 2-((2R,4R)-1-(2-(3-Acetyl-5-(2-methylpyrimidin-5-yl)-1H-indazol-1-yl)acetyl)-4-fluoropyrrolidine-2-carboxamido)-6-bromonicotinic acid]",IC50,,1000 to 10000 nM
"Cc1cccc(NC(=O)[C@@H]2[C@H]3CC[C@H](C3)N2C(=O)Cn2cc(C(N)=O)c3cc(-c4n[nH]c5ccsc45)ccc32)n1 [Compound 704, 1-(2-((1R,3S,4S)-3-(6-Methylpyridin-2-ylcarbamoyl)-2-azabicyclo[2.2.1]heptan-2-yl)-2-oxoethyl)-5-(1H-thieno[3,2-c]pyrazol-3-yl)-1H-indole-3-carboxamide]",IC50,[2],> 10000 nM
"COc1ccc(N2C[C@@H]3CC[C@H]2C=C3c2ccc3c(c2)c(C(C)=O)nn3CC(=O)N2C[C@H](F)C[C@H]2C(=O)Nc2cccc(Br)n2)cc1 [Compound 721, (2S,4R)-1-(2-(3-Acetyl-5-((1S,4R)-2-(4-methoxyphenyl)-2-azabicyclo[2.2.2]oct-5-en-5-yl)-1H-indazol-1-yl)acetyl)-N-(6-bromopyridin-2-yl)-4-fluoropyrrolidine-2-carboxamide]",IC50,[2],< 1000 nM
"CC(=O)c1nn(CC(=O)N2C[C@H](F)C[C@H]2C(=O)Nc2cccc(Br)n2)c2ccc(-c3cnc(S(C)(=N)=O)nc3)cc12 (stereo partly drawn) [Compound 732, (2S,4R)-1-(2-(3-Acetyl-5-(2-(S-methylsulfonimidoyl)pyrimidin-5-yl)-1H-indazol-1-yl)acetyl)-N-(6-bromopyridin-2-yl)-4-fluoropyrrolidine-2-carboxamide]",IC50,[2],< 1000 nM
"CC(=O)c1nn(CC(=O)N2[C@H]3CC[C@H](CC3)[C@H]2C(=O)Nc2cccc(Br)n2)c2ccc(-c3cnc(C)nc3)cc12 [Compound 734, (1R,3S,4R)-2-(2-(3-Acetyl-5-(2-methylpyrimidin-5-yl)-1H-indazol-1-yl)acetyl)-N-(6-bromopyridin-2-yl)-2-azabicyclo[2.2.2]octane-3-carboxamide]",IC50,[2],< 1000 nM
